# Patent publication US4841044A, “Cephalosporin derivatives” (Taisho Pharmaceutical Co., Ltd., priority 1985, dated 1989)
# Where two headings read alike, the source gives them in different places.
# Key:
# [1] = tested on: Escherichia coli NIHJ JC-2; assay: Antibacterial activity (MIC), agar plate dilution method; format: cell-based
# Protocol: (§1) The antibacterial activity of the compounds of the present invention against various bacteria (inoculum size: 10^6 cells/ml) were tested by the agar plate dilution method, and the results are shown in the following Table 1.
# [2] = tested on: Klebsiella pneumoniae IFO 3317; assay: as above; format: cell-based
# Protocol: as §1
# [3] = tested on: Proteus mirabilis IFO 3849; assay: as above; format: cell-based
# Protocol: as §1
# [4] = tested on: Serratia marcescens IID 618; assay: as above; format: cell-based
# Protocol: as §1
# in vivo = settings: rat, blood, oral, 50 mg/kg, male wister rats (7 weeks old), bioassay (Escherichia coli SC507); for concentration at 4 h: Four Hours; for concentration at 1 h: One Hour; for concentration at 2 h: Two Hours
# Protocol: Male wister rats (7 weeks old) were administered orally with the test compound, and the change of the concentration of the compound in blood was measured.
# Dosage of the test compound:
# Quantitative method: Bioassay
# (test bacterium: Escherichia coli SC507)
"MIC ([1]; Escherichia coli NIHJ JC-2, inoculum size: 10^6 cells/ml, agar plate dilution) [µg/mL]","MIC ([2]; Klebsiella pneumoniae IFO 3317, inoculum size: 10^6 cells/ml, agar plate dilution) [µg/mL]","MIC ([3]; Proteus mirabilis IFO 3849, inoculum size: 10^6 cells/ml, agar plate dilution) [µg/mL]","MIC ([4]; Serratia marcescens IID 618, inoculum size: 10^6 cells/ml, agar plate dilution) [µg/mL]","MIC ([1]; NIHJJC2, Escherichia coli NIHJ JC-2, inoculum size: 10^6 cells/ml, agar plate dilution, read-out: MIC) [µg/mL]","MIC ([2]; IFO3317, Klebsiella pneumoniae IFO 3317, inoculum size: 10^6 cells/ml, agar plate dilution, read-out: MIC) [µg/mL]","MIC ([3]; IFO3849, Proteus mirabilis IFO 3849, inoculum size: 10^6 cells/ml, agar plate dilution, read-out: MIC) [µg/mL]","MIC ([4]; IID618, Serratia marcescens IID 618, inoculum size: 10^6 cells/ml, agar plate dilution, read-out: MIC) [µg/mL]",SMILES,"MIC ([1]; Escherichia coli, NIHJJC2) [µg/mL]","MIC ([2]; Klebsiella pneumoniae, IFO3317) [µg/mL]","MIC ([3]; Proteus mirabilis, IFO3849) [µg/mL]","MIC ([4]; Serratia marcescens, IID618) [µg/mL]",concentration at 4 h (in vivo) [ng/mL],concentration at 1 h (in vivo) [ng/mL],concentration at 2 h (in vivo) [ng/mL]
,,,,,,,,"CC1=C(C(=O)O)N2C(=O)[C@@H](NC(=O)[C@H](N)c3ccccc3)[C@H]2SC1 [YY, Cefalexin, reference compound]",12.5,6.25,12.5,> 100,,,
0.2,0.05,< 0.025,0.2,,,,,"CN(C)C(=O)/C=C\SC1=C(C(=O)[O-])N2C(=O)[C@@H](NC(=O)/C(=N\OCC(=O)O)c3csc(N)n3)[C@H]2SC1.[Na+] [A, 7β-{α-(2-aminothiazole-4-yl)-α-[(Z)-carboxymethoxyimino]acetamido}-3-[(Z)-2-N,N-dimethylaminocarbonylvinylthio]-3-cephem-4-carboxylic acid sodium salt]",,,,,,,
,,,,,,,,CCNC(=O)/C=C\SC1=C(C(=O)[O-])N2C(=O)[C@@H](NC(=O)/C(=N\OCC(=O)[O-])c3csc(N)n3)[C@H]2SC1.[Na+].[Na+],0.39,0.05,0.025,0.39,24200,26800,34300
,,,,0.2,0.05,0.025,0.39,CNC(=O)/C=C\SC1=C(C(=O)O)N2C(=O)[C@@H](NC(=O)/C(=N\OCC(=O)O)c3csc(N)n3)[C@H]2SC1 [C],,,,,22400,20800,26600
